Results on 28 molecules are retold here after US20200392158A1, “INHIBITORS OF LEUCINE RICH REPEAT KINASE 2” (GLAXOSMITHKLINE INTELLECTUAL PROPERTY DEVELOPMENT LIMITED, priority 2017, published 2020).

In this assay the target is T1, LRRK2 kinase in SH-SY5Y cells over-expressing recombinant full length LRRK2 (Homo sapiens, UniProt Q5S007).
T1 construct: A BacMam virus expressing full length recombinant LRRK2 was purchased from Invitrogen; host or cells: SH-SY5Y human neuroblastoma cells transduced with BacMam LRRK2 virus
T1 sequence (Q5S007 whole entry): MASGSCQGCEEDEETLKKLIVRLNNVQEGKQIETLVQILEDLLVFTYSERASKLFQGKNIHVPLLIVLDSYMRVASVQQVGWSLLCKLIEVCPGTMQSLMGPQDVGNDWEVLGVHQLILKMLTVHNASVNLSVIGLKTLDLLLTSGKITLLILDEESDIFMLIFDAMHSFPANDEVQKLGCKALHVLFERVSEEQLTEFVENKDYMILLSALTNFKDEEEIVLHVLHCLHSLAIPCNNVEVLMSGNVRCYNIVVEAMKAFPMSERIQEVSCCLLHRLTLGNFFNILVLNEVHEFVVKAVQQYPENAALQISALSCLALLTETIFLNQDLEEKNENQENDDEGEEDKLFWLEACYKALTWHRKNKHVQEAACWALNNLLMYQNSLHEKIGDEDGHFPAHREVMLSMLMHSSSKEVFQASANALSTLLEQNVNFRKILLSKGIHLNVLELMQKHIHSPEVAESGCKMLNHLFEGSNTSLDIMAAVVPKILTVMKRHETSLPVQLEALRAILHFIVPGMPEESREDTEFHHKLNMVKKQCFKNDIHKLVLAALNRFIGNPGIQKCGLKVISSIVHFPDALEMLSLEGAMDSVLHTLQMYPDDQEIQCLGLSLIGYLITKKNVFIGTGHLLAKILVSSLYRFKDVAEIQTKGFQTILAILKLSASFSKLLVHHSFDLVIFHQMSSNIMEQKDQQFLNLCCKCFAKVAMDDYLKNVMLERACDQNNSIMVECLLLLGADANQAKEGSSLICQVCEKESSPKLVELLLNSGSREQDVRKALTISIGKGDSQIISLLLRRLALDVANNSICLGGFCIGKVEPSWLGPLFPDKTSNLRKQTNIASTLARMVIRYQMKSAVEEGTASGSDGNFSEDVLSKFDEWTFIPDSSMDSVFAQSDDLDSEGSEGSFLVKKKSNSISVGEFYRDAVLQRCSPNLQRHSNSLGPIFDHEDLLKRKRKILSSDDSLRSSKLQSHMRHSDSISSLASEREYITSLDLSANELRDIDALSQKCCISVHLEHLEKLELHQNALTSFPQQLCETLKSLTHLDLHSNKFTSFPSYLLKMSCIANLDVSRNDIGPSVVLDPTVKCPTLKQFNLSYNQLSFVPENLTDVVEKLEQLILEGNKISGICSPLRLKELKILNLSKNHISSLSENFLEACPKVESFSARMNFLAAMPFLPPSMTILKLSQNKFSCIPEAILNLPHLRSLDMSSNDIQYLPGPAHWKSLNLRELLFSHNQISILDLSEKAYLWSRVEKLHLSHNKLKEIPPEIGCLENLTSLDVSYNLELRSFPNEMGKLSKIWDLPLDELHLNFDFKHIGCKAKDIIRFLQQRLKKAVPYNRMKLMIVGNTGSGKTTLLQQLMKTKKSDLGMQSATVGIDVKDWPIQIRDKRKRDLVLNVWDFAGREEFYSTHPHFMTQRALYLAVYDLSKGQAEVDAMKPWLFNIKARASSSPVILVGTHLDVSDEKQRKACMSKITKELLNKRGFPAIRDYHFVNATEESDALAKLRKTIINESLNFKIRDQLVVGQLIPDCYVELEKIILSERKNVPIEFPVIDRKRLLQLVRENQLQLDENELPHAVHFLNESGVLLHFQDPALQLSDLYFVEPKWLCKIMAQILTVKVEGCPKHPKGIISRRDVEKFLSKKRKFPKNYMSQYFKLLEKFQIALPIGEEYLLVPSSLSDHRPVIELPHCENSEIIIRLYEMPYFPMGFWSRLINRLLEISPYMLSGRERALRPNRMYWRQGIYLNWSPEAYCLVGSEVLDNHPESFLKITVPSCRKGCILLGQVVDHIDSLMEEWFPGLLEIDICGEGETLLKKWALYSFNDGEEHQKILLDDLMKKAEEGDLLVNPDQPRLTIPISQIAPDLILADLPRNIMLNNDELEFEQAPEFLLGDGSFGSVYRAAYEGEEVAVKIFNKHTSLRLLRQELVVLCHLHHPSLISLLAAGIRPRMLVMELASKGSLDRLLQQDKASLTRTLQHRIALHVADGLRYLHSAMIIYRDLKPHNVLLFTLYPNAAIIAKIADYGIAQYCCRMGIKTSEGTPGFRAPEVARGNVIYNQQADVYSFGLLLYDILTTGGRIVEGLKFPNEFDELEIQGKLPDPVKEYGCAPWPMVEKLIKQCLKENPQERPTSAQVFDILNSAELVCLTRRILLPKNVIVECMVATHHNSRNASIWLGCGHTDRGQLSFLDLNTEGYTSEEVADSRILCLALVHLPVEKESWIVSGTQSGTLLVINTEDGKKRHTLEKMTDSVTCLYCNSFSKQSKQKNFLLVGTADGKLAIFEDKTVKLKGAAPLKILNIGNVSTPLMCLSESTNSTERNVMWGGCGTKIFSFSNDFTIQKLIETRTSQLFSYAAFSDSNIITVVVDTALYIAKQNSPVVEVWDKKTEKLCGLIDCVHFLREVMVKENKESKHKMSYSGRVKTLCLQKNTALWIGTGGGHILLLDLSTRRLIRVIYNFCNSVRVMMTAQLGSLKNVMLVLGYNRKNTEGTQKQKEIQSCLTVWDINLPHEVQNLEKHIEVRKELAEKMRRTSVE
As to the kind of experiment: Recombinant cellular LRRK2 AlphaScreen assay (LRRK2 Ser935 phosphorylation). It is filed as cell-based. Conditions: 60 min. The procedure, abridged: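 SH-SY5Y cells transduced with BacMam full-length LRRK2 (MOI 50) for 24 h, then treated 60 min at 37 °C with compound (11-point 1:4 series, top 10 uM, 0.1% DMSO). Lysates probed by AlphaScreen for pSer935 vs total LRRK2; values fitted to a sigmoidal dose-response model.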

Bounds are passed on as bounds.

Turning to `Cc1c2c(nn1C1CC3(COC3)C1)OCCCNc1nc(ncc1Cl)N2` [E300, 14-Chloro-4-methyl-5-{2-oxaspiro[3.3]heptan-6-yl}-8-oxa-2,5,6,12,16,17-hexaazatricyclo[11.3.1.0^3,7]heptadeca-1(16),3,6,13(17),14-pentaene], the IC50 was not above 100 nM.
On to `Cc1c2c(nn1C1CN(C3COC3)CCO1)OCC[C@@H](C)Nc1nc(ncc1Cl)N2` (stereo partly drawn) [E402, (11R)-14-Chloro-4,11-dimethyl-5-[4-(oxetan-3-yl)morpholin-2-yl]-8-oxa-2,5,6,12,16,17-hexaazatricyclo[11.3.1.0^3,7]heptadeca-1(16),3,6,13(17),14-pentaene], for which the IC50 was not above 100 nM.
`Cc1c2c(nn1C1CC3(COC3)C1)OCCC(C)Nc1nc(ncc1Cl)N2` (racemic): the IC50 was more than 10000 nM.
As for `Cc1c2c(nn1C1CCOCC1)OCCC(C)Oc1nc(ncc1Cl)N2` (single isomer, unassigned) [E330, 14-Chloro-4,11-dimethyl-5-(oxan-4-yl)-8,12-dioxa-2,5,6,16,17-pentaazatricyclo[11.3.1.0^3,7]heptadeca-1(17), 3,6,13,15-pentaene], the IC50 was not above 100 nM.
Turning to `Cc1c2c(nn1C1(C)CCOCC1)OCC[C@@H](C)Nc1nc(ncc1Cl)N2` [E437, (11R)-14-Chloro-4,11-dimethyl-5-(4-methyloxan-4-yl)-8-oxa-2,5,6,12,16,17-hexaazatricyclo[11.3.1.0^3,7]heptadeca-1(16),3,6,13(17),14-pentaene], the IC50 is not above 100 nM.
For the molecule `COC1CNc2nc(ncc2Cl)Nc2c(nn(CC(F)(F)F)c2C)OC1` (single isomer, unassigned) [E269, 14-Chloro-10-methoxy-4-methyl-5-(2,2,2-trifluoroethyl)-8-oxa-2,5,6,12,16,17-hexaazatricyclo[11.3.1.0^3,7] heptadeca-1(16),3,6,13 (17),14-pentaene], the IC50 is not above 100 nM.
As for `Cc1c2c(nn1C1CC(N3CCC(F)(F)C3)C1)OCCC(C)Nc1nc(ncc1Cl)N2` (single isomer, unassigned) [E314, 14-Chloro-5-[3-(3,3-difluoropyrrolidin-1-yl)cyclobutyl]-4,11-dimethyl-8-oxa-2,5,6,12,16,17-hexaazatricyclo [11.3.1.0^3,7]-heptadeca-1(16),3,6,13(17),14-pentaene], the IC50 was not above 100 nM.
As to `FC(F)c1c2c(nn1C1CCOCC1)OCCCNc1nc(ncc1C(F)(F)F)N2` [E118, 4-(Difluoromethyl)-5-(oxan-4-yl)-14-(trifluoromethyl)-8-oxa-2,5,6,12,16,17-hexaazatricyclo[11.3.1.0^3,7]heptadeca-1(16),3,6, 13(17),14-pentaene], the 50% inhibitory concentration (IC50) was not above 100 nM.
Regarding `C[C@@H]1CCOc2nn(C3CN(C4COC4)CCC3(F)F)c(Cl)c2Nc2ncc(Cl)c(n2)N1` (single isomer, unassigned) [E442], the IC50 was not above 100 nM.
With `COC1CCC(n2nc3c(c2C)Nc2ncc(Cl)c(n2)NCC(OC)CO3)CC1` (single isomer, unassigned) [E239, 14-Chloro-10-methoxy-5-(4-methoxycyclohexyl)-4-methyl-8-oxa-2,5,6,12,16,17-hexaazatricyclo [11.3.1. 0^3,7]heptadeca-1(16),3,6,13(17),14-pentaene], the IC50 is not above 100 nM.
With `Cc1c2c(nn1C1CCCOC1)OCCCNc1nc(ncc1Br)N2` (single isomer, unassigned) [E288, 14-Bromo-4-methyl-5-(oxan-3-yl)-8-oxa-2,5,6, 12,16,17-hexaazatricyclo[11.3.1.0^3,7]heptadeca-1(16),3,6,13(17), 14-pentaene], the IC50 was not above 100 nM.
To `COC1CNc2cc(ncc2Cl)Nc2c(nn(C3CCOCC3)c2C)OC1` (stereo not shown) [E342, 14-Chloro-10-methoxy-4-methyl-5-(oxan-4-yl)-8-oxa-2,5,6, 12,16-pentaazatricyclo[11.3.1.0^3,7]heptadeca-1(16),3,6,13(17), 14-pentaene] belongs not above 100 nM.
For `Cc1c2c(nn1C1CCOCC1(F)F)OCC[C@@H](C)Nc1nc(ncc1Cl)N2` (single isomer, unassigned) [E392], the IC50 is not above 100 nM.
For `Cc1c2c(nn1C1CCOCC1C)OCCCNc1nc(ncc1Cl)N2` (stereo not shown) [E139, 14-Chloro-4-methyl-5-(3-methyloxan-4-yl)-8-oxa-2,5,6,12,16,17-hexaazatricyclo[11.3.1.0^3,7]heptadeca-1(16),3,6,13(17),14-pentaene], the half-inhibitory concentration (IC50) was not above 100 nM.
Consider `COC1CNc2nc(ncc2Cl)Nc2c(nn(C3CCOCC3)c2C)OC1` (stereo not shown) [E2, 14-Chloro-10-methoxy-4-methyl-5-(oxan-4-yl)-8-oxa-2,5,6,12,16,17-hexaazatricyclo [11.3.1.0^3,7]heptadeca-1(16),3,6,13(17),14-pentaene], for which the 50% inhibitory concentration (IC50) was not above 100 nM.
Consider `Cc1c2c(nn1C1CCOCC1)OCCCNc1nc(ncc1C#N)N2` [E69, 4-Methyl-5-(oxan-4-yl)-8-oxa-2,5,6,12,16,17-hexaazatricyclo[11.3.1.0^3,7]heptadeca-1(16),3,6,13(17),14-pentaene-14-carbonitrile], for which the IC50 was not above 100 nM.
Regarding `Cc1c2c(nn1C1CN(C3COC3)CCC1(F)F)OCCCNc1nc(ncc1Cl)N2` (single isomer, unassigned) [E408, 14-Chloro-5-[4,4-difluoro-1-(oxetan-3-yl)piperidin-3-yl]-4-methyl-8-oxa-2,5,6,12,16,17-hexaazatricyclo[11.3.1.0^3,7]heptadeca-1(16),3,6,13(17),14-pentaene], the half-maximal inhibitory concentration (IC50) is not above 100 nM.
Take `Cc1c2c(nn1C1CCC(F)(F)CC1)OCC[C@@H](C)Nc1nc(ncc1Cl)N2` [E373, (11R)-14-Chloro-5-(4,4-difluorocyclohexyl)-4,11-dimethyl-8-oxa-2,5,6,12,16,17-hexaazatricyclo[11.3.1.0^3,7]heptadeca-1(16),3,6,13 (17),14-pentaene]: the IC50 is not above 100 nM.
To `COC1CNc2nc(ncc2Cl)Nc2c(nn(CCN3CCOCC3)c2C)OC1` (single isomer, unassigned) [E223, 14-Chloro-10-methoxy-4-methyl-5-[2-(morpholin-4-yl)ethyl]-8-oxa-2,5,6,12,16,17-hexaazatricyclo [11.3.1.0^3,7]heptadeca-1(16),3,6,13(17),14-pentaene] belongs not above 100 nM; to `COC1CNc2nc(ncc2Cl)Nc2c(nn(C3CCCOC3)c2C)OC1` (single isomer, unassigned) [E229, 14-Chloro-10-methoxy-4-methyl-5-(oxan-3-yl)-8-oxa-2,5,6,12,16,17-hexaazatricyclo[11.3.1.0^3,7]heptadeca-1(17),3,6,13,15-pentaene], not above 100 nM.
Turning to `Cc1c2c(nn1C1CCC(C)CC1)OCCCNc1nc(ncc1Cl)N2` (single isomer, unassigned) [E257, 14-Chloro-4-methyl-5-(4-methylcyclohexyl)-8-oxa-2,5,6,12,16,17-hexaazatricyclo[11.3.1.0^3,7]heptadeca-1(16),3,6,13 (17),14-pentaene], the IC50 is not above 100 nM.
For `Cc1c2c(nn1C1CCCOC1)OCCCNc1nc(ncc1C(F)(F)F)N2` (stereo not shown) [E131, 4-Methyl-5-(oxan-3-yl)-14-(trifluoromethyl)-8-oxa-2,5,6,12,16, 17-hexaazatricyclo[11.3.1.0^3,7]heptadeca-1(16),3,6,13(17),14-pentaene], the IC50 is not above 100 nM.
As for `COC1CCCC(n2nc3c(c2C)Nc2ncc(Cl)c(n2)NCCCO3)C1` (single isomer, unassigned) [E178, 14-Chloro-5-(3-methoxycyclohexyl)-4-methyl-8-oxa-2,5,6,12,16,17-hexaazatricyclo[11.3.1.0^3,7]heptadeca-1(16),3,6,13(17),14-pentaene], the IC50 is not above 100 nM.
With `Cc1c2c(nn1C1CCOCC1)OCCCNc1nc(ncc1C(F)(F)F)N2` [E111, 4-Methyl-5-(oxan-4-yl)-14-(trifluoromethyl)-8-oxa-2,5,6,12,16, 17-hexaazatricyclo[11.3.1.0^3,7]heptadeca-1(16),3,6,13(17),14-pentaene], the IC50 is not above 100 nM.
As to `Cc1c2c(nn1C(C)(C)C#N)OCCC(C)Nc1nc(ncc1Cl)N2` (single isomer, unassigned) [E44, 2-{14-chloro-4,11-dimethyl-8-oxa-2,5,6,12,16,17-hexaazatricyclo [11.3.1.0^3,7]heptadeca-1(16),3,6,13(17),14-pentaen-5-yl}-2-methylpropanenitrile], the IC50 was not above 100 nM.
In the case of `Cc1c2c(nn1CCN1CCOCC1)OCCCNc1nc(ncc1Cl)N2` [E220, 14-Chloro-4-methyl-5-[2-(morpholin-4-yl)ethyl]-8-oxa-2,5,6,12, 16,17-hexaazatricyclo[11.3.1.0^3,7]heptadeca-1(16),3,6,13(17),14-pentaene], the IC50 was not above 100 nM.
For `Cc1c2c(nn1C1CC(N3C[C@H]4C[C@@H]3CO4)C1)OCCCNc1nc(ncc1Cl)N2` (stereo partly drawn) [E310, 14-Chloro-4-methyl-5-{3-[(1R,4R)-2-oxa-5-azabicyclo[2.2.1]heptan-5-yl]-cyclobutyl}-8-oxa-2,5,6,12,16,17-hexaazatricyclo [11.3.1.0^3,7]heptadeca-1(16),3,6,13(17),14-pentaene] the value was not above 100 nM.
Take `Cc1c2c(nn1C1COCC(F)C1)OCCCNc1nc(ncc1Cl)N2` (single isomer, unassigned) [E371, 14-Chloro-5[5-fluorooxan-3-yl]-4-methyl-8-oxa-2,5,6,12,16,17-hexaazatricyclo[11.3.1.0^3,7]heptadeca-1(16),3,6, 13(17),14-pentaene]: the IC50 is not above 100 nM.
